Earlier results, collected in patent publication US6849254B1, “HCV combination therapy” (Schering Corporation, priority 1999, dated 2005).

What was measured:
CD4 levels = conditions: HIV patients; higher doses; Phase I/II clinical trials (PharmaProjects)
[1] = for Potency of 1 mg in IU of Vitamin E: per 1 mg
[2] = tested on: chronic childhood cholestasis; conditions: 20-25 IU/kg/day (Sokool et al.)

Row | Molecule | Potency of 1 mg in IU of Vitamin E [1] | other results
1 | CC(C)(Sc1cc(C(C)(C)C)c(O)c(C(C)(C)C)c1)Sc1cc(C(C)(C)C)c(O)c(C(C)(C)C)c1 [Panavia, 4,4′-isopropylidenedithiobis-2,6-di-t-butylphenol] | – | CD4 levels (CD4 levels): stablized or slightly stabilized CD4 levele
2 | Cc1c(C)c2c(c(C)c1O)CC[C@@](C)(CCC[C@H](C)CCC[C@H](C)CCCC(C)C)O2 [d-alpha tocopherol] | 1.49 IU | –
3 | CC(=O)Oc1c(C)c(C)c2c(c1C)CC[C@@](C)(CCC[C@H](C)CCC[C@H](C)CCCC(C)C)O2 [d-alpha tocopheryl acetate] | 1.36 IU | –
4 | Cc1c(C)c2c(c(C)c1OC(=O)CCC(=O)O)CC[C@@](C)(CCC[C@H](C)CCC[C@H](C)CCCC(C)C)O2 [d-alpha tocopheryl succinate] | 1.21 IU | –
5 | CC(=O)Oc1c(C)c(C)c2c(c1C)CC[C@@](C)(CCC[C@H](C)CCC[C@H](C)CCCC(C)C)O2 [di-alpha tocopheryl acetate] | – | Amount equivalent to one IU of Vitamin E ([1]; per one IU of Vitamin E): 1 mg
6 | d-alpha-tocopheryl polyethylene glycol 1000 succinate [Vitamin E-TPGS] | – | Safety and efficacy in chronic childhood cholestasis [2]: appears to be safe and effective
